Source: ChEMBL document CHEMBL5120829, “Discovery and structural optimization of potent epidermal growth factor receptor (EGFR) inhibitors against L858R/T790M/C797S resistance mutation for lung cancer treatment” (Eur J Med Chem, 2022)
The source made the active and inactive calls. No cut-off for these calls is given here.

Assays:
[1] = target: Signal transducer and activator of transcription 3 (Homo sapiens) (UniProt P40763); test: Inhibition of STAT3 phosphorylation in human PC-9 cells expressing EGFR L858R/T790M/C797S mutant at 0.01 to 1 uM by Western blot analysis; assay type: cell-based; details: dose 0.01-1 µM
Sequence of Signal transducer and activator of transcription 3 (Homo sapiens) (P40763 whole entry): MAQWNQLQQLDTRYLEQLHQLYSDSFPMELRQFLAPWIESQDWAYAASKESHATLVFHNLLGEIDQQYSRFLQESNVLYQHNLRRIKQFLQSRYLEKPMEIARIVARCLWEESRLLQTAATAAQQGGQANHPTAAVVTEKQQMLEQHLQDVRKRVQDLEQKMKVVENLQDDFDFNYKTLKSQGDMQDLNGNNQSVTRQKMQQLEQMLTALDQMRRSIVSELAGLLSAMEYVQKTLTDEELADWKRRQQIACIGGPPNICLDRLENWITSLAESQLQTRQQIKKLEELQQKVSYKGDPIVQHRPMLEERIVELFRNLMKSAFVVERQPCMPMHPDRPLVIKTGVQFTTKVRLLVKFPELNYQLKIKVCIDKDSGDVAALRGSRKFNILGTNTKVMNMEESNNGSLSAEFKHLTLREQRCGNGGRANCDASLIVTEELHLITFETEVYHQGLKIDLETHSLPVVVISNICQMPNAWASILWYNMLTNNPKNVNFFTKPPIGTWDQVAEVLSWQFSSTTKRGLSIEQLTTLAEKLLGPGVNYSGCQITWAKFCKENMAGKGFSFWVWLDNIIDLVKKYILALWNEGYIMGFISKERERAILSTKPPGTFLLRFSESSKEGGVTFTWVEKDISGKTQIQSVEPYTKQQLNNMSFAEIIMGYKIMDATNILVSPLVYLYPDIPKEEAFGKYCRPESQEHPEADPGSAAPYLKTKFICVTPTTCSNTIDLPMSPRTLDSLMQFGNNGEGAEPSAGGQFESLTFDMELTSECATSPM

[2] = test system: Epidermal growth factor receptor (Homo sapiens), P00533 [L858R,T790M,C797S]; test: Inhibition of EGFR phosphorylation in human PC-9 cells expressing EGFR L858R/T790M/C797S mutant at 0.01 to 1 uM by Western blot analysis; assay type: cell-based; details: dose 0.01-1 µM
Sequence of Epidermal growth factor receptor (Homo sapiens), P00533 [L858R,T790M,C797S] (P00533 whole entry T790M/C797S/L858R): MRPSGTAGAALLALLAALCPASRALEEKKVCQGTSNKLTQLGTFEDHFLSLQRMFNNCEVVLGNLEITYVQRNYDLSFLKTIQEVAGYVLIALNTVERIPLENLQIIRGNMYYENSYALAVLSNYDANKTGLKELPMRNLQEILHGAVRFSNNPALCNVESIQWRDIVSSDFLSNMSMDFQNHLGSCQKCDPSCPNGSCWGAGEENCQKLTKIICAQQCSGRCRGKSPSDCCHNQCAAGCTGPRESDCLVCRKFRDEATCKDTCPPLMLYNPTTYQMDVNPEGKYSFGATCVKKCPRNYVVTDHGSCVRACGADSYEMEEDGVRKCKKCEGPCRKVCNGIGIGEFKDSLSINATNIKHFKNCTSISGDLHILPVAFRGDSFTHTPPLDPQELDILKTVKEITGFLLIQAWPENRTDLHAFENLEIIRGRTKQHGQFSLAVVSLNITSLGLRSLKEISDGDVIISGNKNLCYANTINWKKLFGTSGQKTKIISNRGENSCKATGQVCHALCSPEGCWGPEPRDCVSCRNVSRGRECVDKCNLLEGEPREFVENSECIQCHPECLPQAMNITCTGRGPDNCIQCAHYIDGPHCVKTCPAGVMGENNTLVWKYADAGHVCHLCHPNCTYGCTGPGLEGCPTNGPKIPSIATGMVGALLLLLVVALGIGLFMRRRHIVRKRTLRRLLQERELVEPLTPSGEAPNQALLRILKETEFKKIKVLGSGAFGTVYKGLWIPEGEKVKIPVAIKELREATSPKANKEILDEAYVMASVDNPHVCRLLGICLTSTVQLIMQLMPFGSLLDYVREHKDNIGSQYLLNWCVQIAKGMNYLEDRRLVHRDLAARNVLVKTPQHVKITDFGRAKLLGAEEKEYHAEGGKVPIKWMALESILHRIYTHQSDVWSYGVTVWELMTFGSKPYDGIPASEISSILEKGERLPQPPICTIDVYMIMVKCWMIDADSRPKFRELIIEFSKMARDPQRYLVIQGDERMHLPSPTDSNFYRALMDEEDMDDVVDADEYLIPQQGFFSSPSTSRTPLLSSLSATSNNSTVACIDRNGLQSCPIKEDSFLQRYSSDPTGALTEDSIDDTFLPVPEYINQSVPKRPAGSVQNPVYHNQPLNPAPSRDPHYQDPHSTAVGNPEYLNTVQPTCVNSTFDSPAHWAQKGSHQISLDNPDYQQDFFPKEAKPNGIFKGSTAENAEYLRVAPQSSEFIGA

[3] = test system: Epidermal growth factor receptor (Homo sapiens), P00533 [L858R,T790M,C797S]; test: Inhibition of EGFR L858R/T790M/C797S mutant (unknown origin) at 0.5 uM relative to control
[4] = test system: Epidermal growth factor receptor (Homo sapiens), P00533 [L858R,T790M,C797S]; test: Inhibition of EGFR L858R/T790M/C797S mutant (unknown origin) at 1 uM relative to control
[5] = target: Epidermal growth factor receptor (Homo sapiens, UniProt P00533, C797S/L858R/T790M); test: Inhibition of EGFR L858R/T790M/C797S mutant (unknown origin)
Sequence of Epidermal growth factor receptor (P00533 25-1210 T790M/C797S/L858R limits assumed): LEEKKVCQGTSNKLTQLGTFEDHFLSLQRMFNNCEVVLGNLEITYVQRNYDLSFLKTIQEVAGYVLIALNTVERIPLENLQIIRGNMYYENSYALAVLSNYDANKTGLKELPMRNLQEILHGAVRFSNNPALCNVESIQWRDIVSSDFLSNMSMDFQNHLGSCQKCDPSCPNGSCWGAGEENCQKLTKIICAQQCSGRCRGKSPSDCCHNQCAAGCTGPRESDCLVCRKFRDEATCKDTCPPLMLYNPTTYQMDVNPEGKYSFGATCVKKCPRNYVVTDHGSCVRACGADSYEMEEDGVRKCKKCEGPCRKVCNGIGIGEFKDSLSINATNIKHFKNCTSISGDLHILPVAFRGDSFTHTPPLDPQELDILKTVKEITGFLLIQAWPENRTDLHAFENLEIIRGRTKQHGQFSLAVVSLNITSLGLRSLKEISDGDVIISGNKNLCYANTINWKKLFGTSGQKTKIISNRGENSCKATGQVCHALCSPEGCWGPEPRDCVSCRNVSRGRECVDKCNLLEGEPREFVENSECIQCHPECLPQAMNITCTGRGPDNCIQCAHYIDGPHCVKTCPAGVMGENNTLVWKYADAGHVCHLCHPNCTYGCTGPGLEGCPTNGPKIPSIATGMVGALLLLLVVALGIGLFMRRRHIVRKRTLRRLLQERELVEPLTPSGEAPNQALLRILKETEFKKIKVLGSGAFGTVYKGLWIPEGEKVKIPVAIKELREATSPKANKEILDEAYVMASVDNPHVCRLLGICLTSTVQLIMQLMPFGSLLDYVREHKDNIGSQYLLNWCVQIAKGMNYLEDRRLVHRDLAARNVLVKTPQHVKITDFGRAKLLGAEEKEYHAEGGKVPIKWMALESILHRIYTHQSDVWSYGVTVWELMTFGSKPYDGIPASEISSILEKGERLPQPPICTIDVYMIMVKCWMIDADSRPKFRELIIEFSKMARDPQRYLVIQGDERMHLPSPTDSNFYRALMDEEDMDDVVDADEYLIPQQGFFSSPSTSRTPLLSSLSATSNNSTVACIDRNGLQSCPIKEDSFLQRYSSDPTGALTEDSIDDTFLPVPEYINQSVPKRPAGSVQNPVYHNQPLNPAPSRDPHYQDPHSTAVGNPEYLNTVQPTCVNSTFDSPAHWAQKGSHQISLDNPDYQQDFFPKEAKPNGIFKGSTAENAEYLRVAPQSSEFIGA

PC-9 [6] = test: Antiproliferative activity against human PC-9 cells expressing EGFR L858R/T790M/C797S mutant assessed as inhibition of cell growth incubated for 72 hrs by CCK-8 assay; assay type: functional, cell-based; details: PC-9, 72 h
A-431 = test: Antiproliferative activity against human A-431 cells assessed as inhibition of cell growth incubated for 72 hrs by CCK-8 assay; assay type: functional, cell-based; details: A-431, 72 h
A549 = test: Antiproliferative activity against human A549 cells assessed as inhibition of cell growth incubated for 72 hrs by CCK-8 assay; assay type: functional, cell-based; details: A549, 72 h
PC-9 [7] = test: Cell cycle arrest in human PC-9 cells expressing EGFR L858R/T790M/C797S mutant assessed as increase in accumulation of cells at G0/G1 phase at 0.01 to 1 uM incubated for 24 hrs by RNase/PI staining based flow cytometry analysis; assay type: functional; details: dose 0.01-1 µM
PC-9 [8] = test: Induction of apoptosis in human PC-9 cells expressing EGFR L858R/T790M/C797S mutant assessed as viable cells at 0.01 uM incubated for 24 hrs by annexin-V/propidium iodide staining-based flow cytometry analysis (reference value: 99.1 %); assay type: functional; details: read-out: Activity
PC-9 [9] = test: Induction of apoptosis in human PC-9 cells expressing EGFR L858R/T790M/C797S mutant assessed as early apoptotic cells at 0.01 uM incubated for 24 hrs by annexin-V/propidium iodide staining-based flow cytometry analysis (reference value: 0.3 %); assay type: functional
PC-9 [10] = test: Induction of apoptosis in human PC-9 cells expressing EGFR L858R/T790M/C797S mutant assessed as late apoptotic cells at 0.01 uM incubated for 24 hrs by annexin-V/propidium iodide staining-based flow cytometry analysis (reference value: 0.14 %); assay type: functional
PC-9 [11] = test: Induction of apoptosis in human PC-9 cells expressing EGFR L858R/T790M/C797S mutant assessed as dead cells at 0.01 uM incubated for 24 hrs by annexin-V/propidium iodide staining-based flow cytometry analysis (reference value: 0.43 %); assay type: functional
PC-9 [12] = test: Induction of apoptosis in human PC-9 cells expressing EGFR L858R/T790M/C797S mutant assessed as viable cells at 0.05 uM incubated for 24 hrs by annexin-V/propidium iodide staining-based flow cytometry analysis (reference value: 99.1 %); assay type: functional; details: read-out: Activity
PC-9 [13] = test: Induction of apoptosis in human PC-9 cells expressing EGFR L858R/T790M/C797S mutant assessed as early apoptotic cells at 0.05 uM incubated for 24 hrs by annexin-V/propidium iodide staining-based flow cytometry analysis (reference value: 0.3 %); assay type: functional
PC-9 [14] = test: Induction of apoptosis in human PC-9 cells expressing EGFR L858R/T790M/C797S mutant assessed as late apoptotic cells at 0.05 uM incubated for 24 hrs by annexin-V/propidium iodide staining-based flow cytometry analysis (reference value: 0.14 %); assay type: functional
PC-9 [15] = test: Induction of apoptosis in human PC-9 cells expressing EGFR L858R/T790M/C797S mutant assessed as dead cells at 0.05 uM incubated for 24 hrs by annexin-V/propidium iodide staining-based flow cytometry analysis (reference value: 0.43 %); assay type: functional
PC-9 [16] = test: Induction of apoptosis in human PC-9 cells expressing EGFR L858R/T790M/C797S mutant assessed as viable cells at 0.25 uM incubated for 24 hrs by annexin-V/propidium iodide staining-based flow cytometry analysis (reference value: 99.1 %); assay type: functional; details: Homo sapiens, PC-9, read-out: Activity
PC-9 [17] = test: Induction of apoptosis in human PC-9 cells expressing EGFR L858R/T790M/C797S mutant assessed as early apoptotic cells at 0.25 uM incubated for 24 hrs by annexin-V/propidium iodide staining-based flow cytometry analysis (reference value: 0.3 %); assay type: functional
PC-9 [18] = test: Induction of apoptosis in human PC-9 cells expressing EGFR L858R/T790M/C797S mutant assessed as late apoptotic cells at 0.25 uM incubated for 24 hrs by annexin-V/propidium iodide staining-based flow cytometry analysis (reference value: 0.14 %); assay type: functional
PC-9 [19] = test: Induction of apoptosis in human PC-9 cells expressing EGFR L858R/T790M/C797S mutant assessed as dead cells at 0.25 uM incubated for 24 hrs by annexin-V/propidium iodide staining-based flow cytometry analysis (reference value: 0.43 %); assay type: functional
[20] = target: Serine/threonine-protein kinase AKT (Homo sapiens) (UniProt P31751+Q9Y243+P31749); test: Inhibition of AKT phosphorylation in human PC-9 cells expressing EGFR L858R/T790M/C797S mutant at 0.01 to 1 uM by Western blot analysis; assay type: cell-based; details: dose 0.01-1 µM
Sequence of Serine/threonine-protein kinase AKT (Homo sapiens) (P31749 whole entry, looked up): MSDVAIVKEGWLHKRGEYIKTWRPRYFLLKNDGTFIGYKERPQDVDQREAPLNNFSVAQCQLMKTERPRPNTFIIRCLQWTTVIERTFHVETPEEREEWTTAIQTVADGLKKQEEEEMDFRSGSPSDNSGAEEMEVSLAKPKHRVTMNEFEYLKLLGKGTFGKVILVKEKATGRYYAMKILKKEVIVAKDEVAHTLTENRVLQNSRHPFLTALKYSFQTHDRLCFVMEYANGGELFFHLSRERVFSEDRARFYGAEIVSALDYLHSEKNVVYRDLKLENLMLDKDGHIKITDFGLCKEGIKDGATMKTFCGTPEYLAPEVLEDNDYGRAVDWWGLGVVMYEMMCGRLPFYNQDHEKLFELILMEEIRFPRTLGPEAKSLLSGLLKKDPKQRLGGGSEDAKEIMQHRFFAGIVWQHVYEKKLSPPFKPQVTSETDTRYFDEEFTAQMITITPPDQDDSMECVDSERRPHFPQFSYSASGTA
Sequence of Serine/threonine-protein kinase AKT (Homo sapiens) (P31751 whole entry, looked up): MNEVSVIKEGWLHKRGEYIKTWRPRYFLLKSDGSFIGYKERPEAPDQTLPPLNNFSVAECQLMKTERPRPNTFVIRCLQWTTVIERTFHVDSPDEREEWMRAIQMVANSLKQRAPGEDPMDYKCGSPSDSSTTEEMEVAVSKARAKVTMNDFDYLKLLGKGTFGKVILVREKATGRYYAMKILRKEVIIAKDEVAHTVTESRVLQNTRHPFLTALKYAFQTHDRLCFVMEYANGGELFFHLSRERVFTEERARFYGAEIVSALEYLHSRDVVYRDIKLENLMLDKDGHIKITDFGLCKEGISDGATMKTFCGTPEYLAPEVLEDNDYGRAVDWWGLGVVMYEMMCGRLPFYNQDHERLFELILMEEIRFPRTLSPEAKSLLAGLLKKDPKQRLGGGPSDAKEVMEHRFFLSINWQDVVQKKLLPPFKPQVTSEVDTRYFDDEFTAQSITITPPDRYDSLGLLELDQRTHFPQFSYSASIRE
Sequence of Serine/threonine-protein kinase AKT (Homo sapiens) (Q9Y243 whole entry, looked up): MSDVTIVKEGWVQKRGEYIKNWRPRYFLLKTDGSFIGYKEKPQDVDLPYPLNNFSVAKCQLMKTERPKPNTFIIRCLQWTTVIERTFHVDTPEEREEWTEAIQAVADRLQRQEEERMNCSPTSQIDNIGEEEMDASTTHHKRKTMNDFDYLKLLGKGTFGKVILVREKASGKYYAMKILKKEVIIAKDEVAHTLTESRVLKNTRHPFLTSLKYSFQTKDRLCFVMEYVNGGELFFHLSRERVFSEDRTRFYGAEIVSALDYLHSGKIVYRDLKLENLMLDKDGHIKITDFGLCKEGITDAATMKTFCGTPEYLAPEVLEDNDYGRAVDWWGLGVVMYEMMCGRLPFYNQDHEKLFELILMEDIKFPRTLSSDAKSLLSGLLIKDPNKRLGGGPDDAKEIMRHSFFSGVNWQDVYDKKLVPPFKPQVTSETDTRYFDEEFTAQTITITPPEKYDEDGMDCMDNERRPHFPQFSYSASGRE

PC-9 [21] = test: Antitumor activity against human PC-9 cells expressing EGFR L858R/T790M/C797S mutant xenografted in po dosed BALB/c nude mouse assessed as inhibition of tumor growth measured every other day for 18 days by digital vernier caliper analysis; assay type: functional, organism-based; details: dose 10-40 mg/kg, time 18.0 day, DDE = dose-dependent effect
PC-9 [22] = test: Antitumor activity against human PC-9 cells expressing EGFR L858R/T790M/C797S mutant xenografted in BALB/c nude mouse assessed as reduction in tumor weight at 10 to 40 mg/kg, po measured every day for 18 days by digital vernier caliper analysis; assay type: functional, organism-based; details: dose 10-40 mg/kg, time 18.0 day
[23] = Toxicity in BALB/c nude mouse xenografted with human PC-9 cells expressing EGFR L858R/T790M/C797S mutant assessed as body weight loss at 10 to 40 mg/kg, po measured every day for 18 days; assay type: organism-based; details: in vivo, 432 h, dose 10-40 mg/kg, time 18 day
[24] = AUC(0 to infinity) in overnight fasted Sprague-Dawley rat at 20 mg/kg, iv by HPLC analysis; assay type: ADME, organism-based; parameters: time infinity, dose 20 mg/kg, route iv; details: in vivo
[25] = AUC(0 to infinity) in overnight fasted Sprague-Dawley rat at 20 mg/kg, po by HPLC analysis; assay type: ADME, organism-based; parameters: time infinity, dose 20 mg/kg, route po; details: in vivo
[26] = Cmax in overnight fasted Sprague-Dawley rat at 20 mg/kg, iv by HPLC analysis; assay type: ADME, organism-based; parameters: dose 20 mg/kg, route iv; details: in vivo
[27] = Cmax in overnight fasted Sprague-Dawley rat at 20 mg/kg, po by HPLC analysis; assay type: ADME, organism-based; parameters: dose 20 mg/kg, route po; details: in vivo
[28] = Tmax in overnight fasted Sprague-Dawley rat at 20 mg/kg, iv by HPLC analysis; assay type: ADME, organism-based; details: in vivo
[29] = Tmax in overnight fasted Sprague-Dawley rat at 20 mg/kg, po by HPLC analysis; assay type: ADME, organism-based; details: in vivo
[30] = Oral bioavailability in overnight fasted Sprague-Dawley rat at 20 mg/kg by HPLC analysis; assay type: ADME, organism-based; details: in vivo
[31] = MRT (0 to infinity) in overnight fasted Sprague-Dawley rat at 20 mg/kg, iv by HPLC analysis; assay type: ADME, organism-based; details: in vivo
[32] = MRT (0 to infinity) in overnight fasted Sprague-Dawley rat at 20 mg/kg, po by HPLC analysis; assay type: ADME, organism-based; details: in vivo
[33] = Volume of distribution at steady state in overnight fasted Sprague-Dawley rat at 20 mg/kg, iv by HPLC analysis; assay type: ADME, organism-based; details: in vivo, read-out: Vdss
[34] = Volume of distribution at steady state in overnight fasted Sprague-Dawley rat at 20 mg/kg, po by HPLC analysis; assay type: ADME, organism-based; details: in vivo
[35] = Clearance in overnight fasted Sprague-Dawley rat at 20 mg/kg, iv by HPLC analysis; assay type: ADME, organism-based; details: in vivo
[36] = Clearance in overnight fasted Sprague-Dawley rat at 20 mg/kg, po by HPLC analysis; assay type: ADME, organism-based; details: in vivo
[37] = Half life in overnight fasted Sprague-Dawley rat at 20 mg/kg, iv by HPLC analysis; assay type: ADME, organism-based; details: in vivo
[38] = Half life in overnight fasted Sprague-Dawley rat at 20 mg/kg, po by HPLC analysis; assay type: ADME, organism-based; details: in vivo

SMILES: CN1CCN(c2ccc(Nc3ncc4cc(CNc5ccccc5)n(C5CCCC5)c4n3)cc2)CC1
- inhibition [1]: Active
- inhibition [2]: Active
- inhibition [3]: 83%
- inhibition [4]: 90%
- IC50 [5]: 17 nM
- IC50 (PC-9 [6]): 13 nM
- IC50 (A-431): 2970 nM
- IC50 (A549): 1030 nM
- Activity (PC-9 [7]): Active
- viability at 0.01 µM (PC-9 [8]): 93.1%
- Activity (PC-9 [9]): 1.21%
- Activity (PC-9 [10]): 4.53%
- Activity (PC-9 [11]): 1.14%
- viability at 0.05 µM (PC-9 [12]): 88.2%
- Activity (PC-9 [13]): 5.43%
- Activity (PC-9 [14]): 5.21%
- Activity (PC-9 [15]): 1.11%
- viability at 0.25 µM (PC-9 [16]): 75.4%
- Activity (PC-9 [17]): 6.8%
- Activity (PC-9 [18]): 10.7%
- Activity (PC-9 [19]): 7.03%
- inhibition [20]: Active
- Activity (PC-9 [21]): Dde
- Activity (PC-9 [22]): Active
- Activity [23]: Non-Toxic
- AUC(0-inf) [24]: 15900 ng·h/mL
- AUC(0-inf) [25]: 10500 ng·h/mL
- Cmax [26]: 6840 ng/mL
- Cmax [27]: 770 ng/mL
- Tmax [28]: 4.98 min
- Tmax [29]: 6 h
- bioavailability [30]: 66%
- MRT inf [31]: 16.4 h
- MRT inf [32]: 16.8 h
- Vd [33]: 16 L/kg
- Vdss [34]: 28.101 L/kg
- clearance [35]: 21.2 mL/min/kg
- CL/F [36]: 35.9 mL/min/kg
- half-life [37]: 8.92 h
- half-life [38]: 11.2 h
